Columns and labels:
Aromatase [1] = target: T1, Aromatase (Homo sapiens, UniProt P11511); assay: In vitro inhibitory activity against Cytochrome P450 19A1 in human placental microsomes; parameters: species or system Placenta
T1 sequence (P11511 whole entry): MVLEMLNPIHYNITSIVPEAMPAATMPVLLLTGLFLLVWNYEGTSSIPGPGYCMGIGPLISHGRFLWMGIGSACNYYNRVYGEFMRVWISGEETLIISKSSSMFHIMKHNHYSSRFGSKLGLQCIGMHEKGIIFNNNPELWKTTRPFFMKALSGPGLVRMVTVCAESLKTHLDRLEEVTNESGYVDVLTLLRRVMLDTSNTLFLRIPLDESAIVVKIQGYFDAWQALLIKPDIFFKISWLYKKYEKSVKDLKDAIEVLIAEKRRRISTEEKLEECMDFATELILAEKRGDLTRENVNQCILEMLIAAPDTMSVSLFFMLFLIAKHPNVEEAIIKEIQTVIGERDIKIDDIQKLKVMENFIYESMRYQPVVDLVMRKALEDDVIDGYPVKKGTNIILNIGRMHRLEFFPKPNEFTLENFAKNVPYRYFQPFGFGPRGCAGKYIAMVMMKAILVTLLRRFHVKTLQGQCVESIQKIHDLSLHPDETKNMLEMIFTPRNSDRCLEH

CYP19A1 (aromatase) = target: T2, CYP19A1 (aromatase) (Homo sapiens, UniProt P11511); assay: Catalytic rate constant for time dependent inactivation of Cytochrome P450 19A1
T2 sequence (P11511 whole entry): T1 sequence (P11511 whole entry)

Aromatase [2] = target: T1, Aromatase; assay: Inactivation constant (Ki) for time-dependent inactivation of Cytochrome P450 19A1
Aromatase [3] = target: T1, Aromatase; assay: Apparent inhibition constant (Ki) Cytochrome P450 19A1; settings: read-out: Ki app
Aromatase [4] = target: T1, Aromatase; assay: Catalytic rate constant for time dependent inactivation of Cytochrome P450 19A1; NT= time-dependent inactivation not observed
Aromatase [5] = target: T1, Aromatase; assay: Inactivation constant (Ki) for time-dependent inactivation of Cytochrome P450 19A1; NT= time-dependent inactivation not observed

Compound | IC50 (Aromatase [1]) [µM] | kinact (CYP19A1 (aromatase)) [s⁻¹] | Ki (Aromatase [2]) [µM] | Ki (Aromatase [3]) [µM] | K inact (Aromatase [4]) | Ki (Aromatase [5])
CCCC[C@H]1CC2C(CCC3(C)C(=O)CCC23)C2(C)C=CC(=O)C=C12 (stereo not given in full) | 0.2 | 0.000483 | 0.571 | 0.016 | – | –
CC[C@H]1CC2C(CCC3(C)C(=O)CCC23)C2(C)C=CC(=O)C=C12 (stereo not given in full) | 0.25 | 0.00108 | 0.196 | 0.019 | – | –
C[C@H]1CC2C(CCC3(C)C(=O)CCC23)C2(C)C=CC(=O)C=C12 (stereo not given in full) | – | 0.0008 | – | – | – | –
CCCCCC[C@H]1CC2C(CCC3(C)C(=O)CCC23)C2(C)C=CC(=O)C=C12 (stereo not given in full) | 0.28 | 0.000833 | 0.65 | 0.025 | – | –
CCCC[C@@H]1CC2C(CCC3(C)C(=O)CCC23)C2(C)C=CC(=O)C=C12 (stereo not given in full) | 0.18 | – | – | 0.014 | Inactivation not observed | Inactivation not observed
CCC[C@H]1CC2C(CCC3(C)C(=O)CCC23)C2(C)C=CC(=O)C=C12 (stereo not given in full) | 0.27 | 0.000733 | 0.339 | 0.022 | – | –
CCCCCCC[C@H]1CC2C(CCC3(C)C(=O)CCC23)C2(C)C=CC(=O)C=C12 (stereo not given in full) | 0.25 | – | – | 0.02 | Inactivation not observed | Inactivation not observed
CCCCCC[C@@H]1CC2C(CCC3(C)C(=O)CCC23)C2(C)C=CC(=O)C=C12 (stereo not given in full) | 0.076 | – | – | 0.008 | Inactivation not observed | Inactivation not observed
CCCCC[C@@H]1CC2C(CCC3(C)C(=O)CCC23)C2(C)C=CC(=O)C=C12 (stereo not given in full) | 0.054 | – | – | 0.005 | Inactivation not observed | Inactivation not observed
CCCCC[C@H]1CC2C(CCC3(C)C(=O)CCC23)C2(C)C=CC(=O)C=C12 (stereo not given in full) | 0.14 | – | – | 0.011 | Inactivation not observed | Inactivation not observed
C[C@@H]1CC2C(CCC3(C)C(=O)CCC23)C2(C)C=CC(=O)C=C12 (stereo not given in full) | – | 0.00102 | – | – | – | –
CC[C@@H]1CC2C(CCC3(C)C(=O)CCC23)C2(C)C=CC(=O)C=C12 (stereo not given in full) | 0.054 | – | – | 0.0047 | Inactivation not observed | Inactivation not observed
CCC[C@@H]1CC2C(CCC3(C)C(=O)CCC23)C2(C)C=CC(=O)C=C12 (stereo not given in full) | 0.06 | – | – | 0.007 | Inactivation not observed | Inactivation not observed
CCCCCCC[C@@H]1CC2C(CCC3(C)C(=O)CCC23)C2(C)C=CC(=O)C=C12 (stereo not given in full) | 0.06 | – | – | 0.0078 | Inactivation not observed | Inactivation not observed

From ChEMBL document CHEMBL1129505, “Time-dependent inactivation of aromatase by 6-alkylandrosta-1,4-diene-3,17-diones. Effects of length and configuration of 6-alkyl group” (J Med Chem, 1996)
